The record followed here is patent US9334271B2, “Purine derivatives and their use in the treatment of disease” (Novarits AG, priority 2012, dated 2016).

Broadly, the IC50 is the midpoint of a concentration-inhibition curve. For orientation: EC50 means the midpoint of the concentration-response curve.

The target of one test is recombinant human mTOR (Homo sapiens (Human), UniProt P42345). Nature of the test: Test 1: mTOR ATP-binding assay based on TR-FRET. To be noted: GST-tagged truncated human mTOR, tracer-314, TR-FRET. The protocol:
Test 1: mTOR ATP-Binding Assay Based on TR-FRET for Recombinant Human mTOR
2. The final volume of the assay is 10 μL and the order of addition is as follows:
50 nL of compounds dilution;
Incubated for 60 minutes at room temperature.
TR-FRET measured in Biotek Synergy2 reader at: • Excitation 340 nm/emission 665 nm • Excitation 340 nm/emission 620 nm
The following final concentrations are used:
1 nM Europium anti-GST antibody;
The following controls are used:
3. IC50 determinations may be performed as follows:
The Emission ratio is converted to percentage of inhibition for each compound concentration. IC50 values are calculated by fitting a sigmoidal dose-response curve to a plot of assay readout over compound concentration. All fits and analysis are performed with the program XLfit4 (ID Business Solutions, Guildford, UK).
Background: Time-resolved FRET reads energy transfer from a long-lived donor to a nearby acceptor.

The subject of test [1] is cellular mTOR kinase activity (phosphorylation of Thr 389 of S6K1) in TSC1-/- MEFs. Nature of the test: Test 2: Cellular mTOR assay (P-P70S6K T389 Surefire). To be noted: Mus musculus. The test is classed as cell-based. The protocol:
Test 2: Cellular mTOR Assay
30 μl are added per well to a 384 well-plate using a Multidrop instrument (Thermo scientific), resulting in 4000 cells/well. The plates are incubated at 37° C./5% CO2 for 20 hours (to allow for settling and adherance to the surface).
Eight 3-fold serial dilutions of test-compounds (beginning at 1.8 mM) are prepared in 90% DMSO and compiled on 384 well master plates (Greiner). A pan-pPI3K/mTOR inhibitor (0.8 mM of 8-(6-methoxy-pyridin-3-yl)-3-methyl-1-(4-piperazin-1-yl-3-trifluoromethyl-phenyl)-1,3-dihydro-imidazo[4,5-c]quinolin-2-one in 90% DMSO) is added to the wells for the low control. 90% DMSO is added to the wells for the high controls. Compounds are provided as 250 nl shots (Hummingbird) in 384 well-polypropylene microplates (compound plates). 50 μl of growth medium is added to the compound plates (dilution 1:200) with the Multidrop. After shaking (1 min at 2000 rpm), 10 μl of the first dilution is then transferred to the cell plate with a Matrix Plate Mate 2×3 pipettor (final dilution 1:4). After 1 hour of treatment, medium is removed from the plate and 20 μl of Surefire lysis buffer is added per well with the Multidrop.
Cell lysates are frozen for 15 minutes, thawed with shaking and transferred to the experimental 384 well-Proxiplate (5 μl/well) for the P-P70S6K (T389) Surefire assay (Perkin Elmer #TGR70S50). The first mix is composed of the reaction buffer (containing the specific antibody), the activation buffer and the acceptor beads (40 vol, 10 vol and 1 vol respectively). 5 μl per well is added to the lysates with a Zephyr® SPE Workstation (Caliper Life Sciences) and incubated for 2 hours with shaking at room temperature. After this incubation time, the second mix of dilution buffer and donor beads (20 vol and 1 vol respectively) is added to the plate with the same instrument (2 μl/well). After 2 hours, the plate can be read with an EnVision® Multilabel Reader (Perkin Elmer). Since the beads are light sensitive, their transfer and incubation is executed in a dark room (greenlight).
The raw data is used to generate dose response curves for test compounds and IC50 values calculated therefrom.

Another test has as its system H4 mCherry-GFP-LC3 cells. Nature of the test: Test 3: Autophagy assay (mCherry-GFP-LC3 reporter, high-content imaging). The test is classed as cell-based, human. The following applies: 16-18 h treatment, mCherry-positive LC3 puncta/cell. From the text:
Autophagy is a catabolic pathway that degrades bulk cytosol in lysosomal compartments enabling amino acids and fatty acids to be recycled. One of the key regulators of autophagy is the mammalian target of rapamycin (mTOR), a conserved serine/threonine kinase which suppresses the initiation of the autophagic process when nutrients, growth factors and energy are available. To quantify autophagy induction by mTOR inhibitors, we use a mCherry-GFP-LC3 reporter which is amenable to retroviral delivery into mammalian cells, stable expression and analysis by fluorescence microscopy.
The amino acid sequence of the mCherry-GFP-LC3 construct is shown below (SEQ ID NO: 1). The mCherry sequence is underlined, GFP sequence is in bold and LC3A sequence is boxed.
Described hereinafter is an imaging protocol and image recognition algorithm to visualize and measure changes in the autophagic pathway.
Quantification of Autophagy Using High-Content Imaging and Analysis
• 1. Day 0: Cell plating. Subconfluent H4 mCherry-GFP-LC3 cells are harvested by trypsinization, resuspended in growth medium, and counted (H4 cells: Human neuroglioma cell line (ATCC)). A cell suspension of 66′000 cells/mL is prepared and 30 μL are added into the wells of a 384-well plate using an electronic multichannel pipette. […] The cell plates are briefly spun down and placed at 37° C. and 5% CO2. • 2. Day 1: Compound treatment. Compound dose responses are prepared in DMSO. The dose responses are then diluted 1:50 in medium. 10 ul of the diluted compound is added to 30 ul of cells, yielding a final 1:200 dilution of the original compound and final of 0.5% DMSO. Compound-treatments are performed in triplicates. The 384-well plates are placed at 37° C. and 5% CO2. Compound treatment is performed for 16-18 h (see Note 1). • 3. Day 2: Cell fixation. Cells are fixed by adding 10 μL/well 5× concentrated Mirsky's fixative supplemented with 25 μg/mL Hoechst33342. […] The 384-well plate is briefly spun down and incubated for 1 h at room temperature. Cells are then washed using a 384-well plate washer using a protocol which aspirates the volume down to 10 μL/well before dispensing 100 μL/well 1×TBS. Aspiration and dispensing steps are repeated 4 times and a final volume of 100 μL/well is left. The plate is sealed using an adhesive PCR foil. • 4. Imaging. The bottom of the plate is cleaned with 70% ethanol and then imaged using the InCell 1000 automated epifluorescence microscope. 20× magnification is used and 4 different areas (fields) are imaged per well, this typically captures a total of around 400 cells per well. Hoechst33342 images are acquired using an excitation of 360 nm (D360_40x filter), an emission of 460 nm (HQ460_40M filter) and an exposure time of 150 ms. GFP images are acquired using an excitation of 475 nm (S475_20x filter), an emission of 535 nm (HQ535_50M filter) and an exposure time of 1 s. mCherry images are acquired using an excitation of 535 nm (HQ535_50x filter), an emission of 620 nm (HQ620_60M filter) and an exposure time of 1 s. A quadruple band pass mirror is used for all images. • 5. Image analysis. The InCell Analysis software is used to analyze the images using the Multi Target Analysis algorithm. First, nuclei are detected in the Hoechst33342 image using top-hat segmentation and a minimal nuclear area of 50 μm^2. Cells are defined using a collar of 10 μm around the nuclei. Second, puncta (organelles) are identified in the mCherry image inside the cells using multi-top-hat segmentation. Third, the mask of the mCherry puncta is transferred onto the GFP image. Fourth, the GFP fluorescence intensity inside the mCherry puncta mask is measured (reference intensity). • 6. The ‘organelles’ parameter reflects mCherry-positive puncta of the mCherry-GFP-LC3 reporter and is used to calculate ‘LC3 puncta/cell’. […]

Where [2] appears, read: TSC1-/- MEFs, 1 hour treatment, P-P70S6K (T389), read-out: Test 2: T389 cellular assay IC50.
The mark [3] stands for this setting: 1 h, read-out: Test 2: T389 cellular assay IC50 (nM).

Like-named read-outs stand apart in the source and are kept apart here.

Chain of recombinant human mTOR (P42345 1360-2549): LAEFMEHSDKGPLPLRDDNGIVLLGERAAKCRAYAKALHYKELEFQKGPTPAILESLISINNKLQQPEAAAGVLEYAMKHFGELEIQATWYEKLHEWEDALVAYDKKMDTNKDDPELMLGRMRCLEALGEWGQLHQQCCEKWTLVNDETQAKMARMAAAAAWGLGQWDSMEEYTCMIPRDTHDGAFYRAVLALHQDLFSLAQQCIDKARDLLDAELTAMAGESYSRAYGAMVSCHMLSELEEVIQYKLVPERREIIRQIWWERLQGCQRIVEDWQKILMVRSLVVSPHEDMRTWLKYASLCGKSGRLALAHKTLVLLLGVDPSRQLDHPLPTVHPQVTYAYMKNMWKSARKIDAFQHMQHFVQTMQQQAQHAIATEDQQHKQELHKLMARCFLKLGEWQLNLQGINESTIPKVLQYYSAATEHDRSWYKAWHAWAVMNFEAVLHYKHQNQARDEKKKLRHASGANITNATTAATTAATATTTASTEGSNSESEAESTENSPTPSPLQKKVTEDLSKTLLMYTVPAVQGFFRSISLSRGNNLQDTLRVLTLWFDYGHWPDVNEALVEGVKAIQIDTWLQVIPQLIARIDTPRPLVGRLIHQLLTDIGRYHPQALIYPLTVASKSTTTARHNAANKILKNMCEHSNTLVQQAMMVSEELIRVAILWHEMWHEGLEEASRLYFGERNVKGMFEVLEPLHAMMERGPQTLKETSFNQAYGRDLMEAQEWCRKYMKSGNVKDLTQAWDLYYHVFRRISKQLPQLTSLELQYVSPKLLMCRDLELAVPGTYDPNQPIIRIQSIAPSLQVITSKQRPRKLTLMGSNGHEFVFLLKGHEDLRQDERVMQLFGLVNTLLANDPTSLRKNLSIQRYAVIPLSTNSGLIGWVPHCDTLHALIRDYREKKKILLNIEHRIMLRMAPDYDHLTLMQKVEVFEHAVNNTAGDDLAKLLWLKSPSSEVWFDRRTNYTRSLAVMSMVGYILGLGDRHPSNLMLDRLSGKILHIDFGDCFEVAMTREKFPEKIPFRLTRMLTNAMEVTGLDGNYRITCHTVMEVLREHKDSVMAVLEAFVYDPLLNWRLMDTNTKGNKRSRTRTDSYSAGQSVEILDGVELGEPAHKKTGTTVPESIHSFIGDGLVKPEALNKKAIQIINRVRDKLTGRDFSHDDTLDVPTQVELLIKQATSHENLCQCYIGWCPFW

For `C[C@@H]1COCCN1c1nc(N2CCOC[C@@H]2C)nc2[nH]c(-c3cc[nH]n3)nc12` [Example 2, 2-((S)-3-Methyl-morpholin-4-yl)-6-((R)-3-methyl-morpholin-4-yl)-8-(1H-pyrazol-3-yl)-9H-purine], the IC50 on recombinant human mTOR amounted to 104 nM; in test [1] (setting [2]) it was 131 nM. For the same molecule, the EC50 in the test with H4 mCherry-GFP-LC3 cells (Homo sapiens) was 1050 nM. In the test on H4 mCherry-GFP-LC3 cells, `C[C@@H]1COCCN1c1nc(N2C3CCC2CC(O)C3)nc2[nH]c(-c3cccc4[nH]ccc34)nc12` (stereo partly drawn) [Example 14, 8-[8-(1H-Indol-4-yl)-6-((R)-3-methyl-morpholin-4-yl)-9H-purin-2-yl]-8-aza-bicyclo[3.2.1]octan-3-ol] returned an EC50 of 855 nM. Regarding `c1ccc(-c2nc3c(N4CCOCC4)nc(N4CCOCC4)nc3[nH]2)nc1` [Example 9, 2,6-Di-morpholin-4-yl-8-pyridin-2-yl-9H-purine], the IC50 at recombinant human mTOR came out at 860 nM. Molecule `C[C@@H]1COCCN1c1nc(N2CC3(CCCOC3)C2)nc2[nH]c(-c3cccc4[nH]ccc34)nc12` [Example 17, 8-(1H-Indol-4-yl)-6-((R)-3-methyl-morpholin-4-yl)-2-(6-oxa-2-aza-spiro[3.5]non-2-yl)-9H-purine] yielded an EC50 in the test with H4 mCherry-GFP-LC3 cells (Homo sapiens) of 663 nM. Molecule `C[C@@H]1COCCN1c1nc(N2CCC23CCOCC3)nc2[nH]c(-c3cccc4[nH]ccc34)nc12` [Example 24, 8-(1H-Indol-4-yl)-6-((R)-3-methyl-morpholin-4-yl)-2-(7-oxa-1-aza-spiro[3.5]non-1-yl)-9H-purine] yielded an EC50 in the test on H4 mCherry-GFP-LC3 cells (Homo sapiens) of 302 nM. Same read-out and setting: as for `C[C@@H]1COCCN1c1nc(N2C3CCC2CC(O)C3)nc2[nH]c(-c3cccc4[nH]ccc34)nc12` (stereo partly drawn) [Example 13, 8-[8-(1H-Indol-4-yl)-6-((R)-3-methyl-morpholin-4-yl)-9H-purin-2-yl]-8-aza-bicyclo[3.2.1]octan-3-ol], the figure is 935 nM. Turning to `C[C@@H]1COCCN1c1nc(N2CCC3COCC3C2)nc2[nH]c(-c3cccc4[nH]ccc34)nc12` (stereo partly drawn) [Example 20, 2-(Hexahydro-furo[3,4-c]pyridin-5-yl)-8-(1H-indol-4-yl)-6-((R)-3-methyl-morpholin-4-yl)-9H-purine], the “Test 3: Autophagy EC50 (nM)” value in the test with H4 mCherry-GFP-LC3 cells is on record as “n.m”. For `C[C@@H]1COCCN1c1nc(N2CCO[C@H](CO)C2)nc2[nH]c(-c3cccc4[nH]ccc34)nc12` [Example 25, {(S)-4-[8-(1H-Indol-4-yl)-6-((R)-3-methyl-morpholin-4-yl)-9H-purin-2-yl]-morpholin-2-yl}-methanol], the results for the IC50 (on recombinant human mTOR; in test [1] (setting [3])) were 380 nM and 1930 nM, respectively. For `C[C@@H]1COCCN1c1nc(N2CC3COCC3C2)nc2[nH]c(-c3cccc4[nH]ccc34)nc12` (stereo partly drawn) [Example 19, 8-(1H-Indol-4-yl)-6-((R)-3-methyl-morpholin-4-yl)-2-(tetrahydro-furo[3,4-c]pyrrol-5-yl)-9H-purine], in test [1] (setting [3]), the IC50 is 471 nM. Also, the EC50 in the test on H4 mCherry-GFP-LC3 cells (Homo sapiens) was 727 nM. On to `CC(C)[C@@H]1COCCN1c1nc(N2CCOC[C@H]2C)c2nc(-c3cccc4[nH]ccc34)[nH]c2n1` [Example 21, 8-(1H-Indol-4-yl)-2-((R)-3-isopropyl-morpholin-4-yl)-6-((R)-3-methyl-morpholin-4-yl)-9H-purine], for which the IC50 was determined as 122 nM at recombinant human mTOR and 179 nM in test [1] (setting [3]). For `C[C@@H]1COCCN1c1nc(N2CCO[C@@H](CO)C2)nc2[nH]c(-c3cccc4[nH]ccc34)nc12` [Example 26, {(R)-4-[8-(1H-Indol-4-yl)-6-((R)-3-methyl-morpholin-4-yl)-9H-purin-2-yl]-morpholin-2-yl}-methanol], in that order: 67 nM and 318 nM. Regarding `C[C@@H]1COCCN1c1nc(N2CCOC[C@@H]2C)nc2[nH]c(-c3cc(F)cc4[nH]ccc34)nc12` [Example 5, 8-(6-Fluoro-1H-indol-4-yl)-2-((S)-3-methyl-morpholin-4-yl)-6-((R)-3-methyl-morpholin-4-yl)-9H-purine], the IC50 at recombinant human mTOR was found to be 21 nM; in test [1] (setting [2]), 122 nM.
